pIC50: −log10 of the molar value.
What was measured:
[1] = biological target: T1, Monoglyceride lipase (Homo sapiens, UniProt Q99685); experiment: In Vitro Competitive Activity-Based Protein Profiling: Proteomes (human prefrontal cortex or cell membrane fractions) (50 μL, 1.0 mg/mL total protein concentration) were preincubated with varying concentrations of inhibitors at 37° C. After 30 min, FP-Rh or HT-01 (1.0 μL, 50 μM in DMSO) was added and the mixture was incubated for another 30 min at room temperature. Reactions were quenched with SDS loading buffer (15 μL—4×) and run on SDS-PAGE.
T1 sequence (Q99685 whole entry): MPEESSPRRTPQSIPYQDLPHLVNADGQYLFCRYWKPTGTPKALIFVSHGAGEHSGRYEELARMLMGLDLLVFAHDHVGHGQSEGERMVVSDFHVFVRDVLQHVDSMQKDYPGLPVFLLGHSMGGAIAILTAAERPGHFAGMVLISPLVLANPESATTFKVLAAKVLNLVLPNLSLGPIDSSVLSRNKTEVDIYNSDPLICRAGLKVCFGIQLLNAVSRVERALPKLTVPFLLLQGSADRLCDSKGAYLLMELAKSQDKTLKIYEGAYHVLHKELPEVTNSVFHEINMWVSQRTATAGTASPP

[2] = biological target: T2, Monoglyceride lipase (Mus musculus, UniProt O35678); experiment: Preparation of Mouse Brain Proteomes from Inhibitor Treated Mice: Inhibitors were administered to wild-type C57B1/6J by oral gavage in a vehicle of polyethylene glycol. Each animal was sacrificed 4 h following administration and brain proteomes were prepared and analyzed according to previously established methods (See Niphakis, M. J., et al. (2011) ACS Chem. Neurosci. and Long, J. Z., et al. Nat. Chem. Biol. 5:37-44).
T2 sequence (O35678 whole entry): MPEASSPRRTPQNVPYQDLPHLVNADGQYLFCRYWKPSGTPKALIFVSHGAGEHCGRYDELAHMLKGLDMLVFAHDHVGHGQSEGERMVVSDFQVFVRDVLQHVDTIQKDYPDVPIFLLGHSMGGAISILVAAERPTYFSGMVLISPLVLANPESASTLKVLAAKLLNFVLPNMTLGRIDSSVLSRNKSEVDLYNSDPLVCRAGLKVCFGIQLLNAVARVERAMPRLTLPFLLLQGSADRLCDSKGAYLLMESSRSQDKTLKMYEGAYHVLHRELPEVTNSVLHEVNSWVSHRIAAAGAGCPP

In the case of `Cc1c(CN2CCCC23CCN(C(=O)OC(C(F)(F)F)C(F)(F)F)CC3)[nH]c2ccc(Cl)cc12`, the pIC50 [1] was > 7.00 and the pIC50 [2] was > 7.00.

In the case of `O=C(OC(C(F)(F)F)C(F)(F)F)N1CCC2(CCCN2C(=O)c2cc3ccc(F)cc3s2)CC1`, the pIC50 [2] was > 7.00.

With `Cc1ccc2cc(C(=O)N3CCCC34CCN(C(=O)OC(C(F)(F)F)C(F)(F)F)CC4)sc2c1` the pIC50 [2] was > 7.00.

For `O=C(OC(C(F)(F)F)C(F)(F)F)N1CCC2(CCCN2Cc2cc3cc(Cl)c(Cl)cc3[nH]2)CC1`, the pIC50 [1] was > 7.00.

In the case of `COCCN(C(=O)C1(c2ncccn2)CC1)C1(C)CCN(C(=O)OC(C(F)(F)F)C(F)(F)F)CC1`, the pIC50 [1] was > 7.00.

In the case of `COc1cccc2cc(CN3CCCC34CCN(C(=O)OC(C(F)(F)F)C(F)(F)F)CC4)[nH]c12`, the pIC50 [1] was > 7.00 and the pIC50 [2] was > 7.00.

Reference: ChEMBL document CHEMBL5728755, “Spirocycle compounds and methods of making and using same” (2021)
